Data published in patent publication US11498928B2, “Macrocyclic spiroethers as Mcl-1 inhibitors” (ASCENTAGE PHARMA (SUZHOU) CO., LTD., priority 2019, dated 2022).

Experiments:
[1] = target: T1, Mcl-1 protein (residues 171-323) (Homo sapiens, UniProt Q07820); experiment: Inhibition of Mcl-1 by fluorescence polarization (FP) competitive binding assay with FAM-Bid tracer; details: 2 nM FAM-Bid, 20 nM Mcl-1, 30 min
T1 construct: Tag-free Mcl-1 protein (residues 171-323) was used in the FP assay
Method in brief: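 Ten-point compound titrations compete against 2 nM fluorescein-Bid for 20 nM Mcl-1 (171-323, untagged). Incubation 30 min RT in PBS buffer with BGG and Triton, 5% DMSO final. mP reduction fitted by sigmoidal nonlinear regression for IC50.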

[2] = system: OPM-2 cells; experiment: Cell viability assay (OPM-2 cells), CCK-8; type: cell-based; details: Homo sapiens, OPM-2, 24 h, 5% FBS
Method in brief: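 Viability read by CCK-8 absorbance (450 nm, 4 h reagent incubation) after 24 h compound exposure of 20000 OPM-2 cells per well at 37 °C. IC50 fitted by nonlinear regression on vehicle-normalized signal.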

[3] = system: NCI-H929 cells; experiment: Cell viability assay (NCI-H929 cells), CCK-8; type: cell-based; details: Homo sapiens, NCI-H929, 24 h, 5% FBS
Method in brief: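 Viability of NCI-H929 cells was measured using the Cell Counting Kit-8. After 24 hrs of compound exposure, 10 μL of CCK-8 solution per well was incubated for 1-4 hours, and absorbance was read at 450 nm on a BioTek Synergy 1MF. Readings were normalized to vehicle (DMSO) cells, and IC50 values were derived by nonlinear regression in GraphPad Prism 6.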

T1 sequence (Q07820 171-323): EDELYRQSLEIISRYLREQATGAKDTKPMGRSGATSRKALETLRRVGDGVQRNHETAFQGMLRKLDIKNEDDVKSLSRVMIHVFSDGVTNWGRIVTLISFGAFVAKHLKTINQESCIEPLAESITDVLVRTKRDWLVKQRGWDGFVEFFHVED

Row | IC50 [1] | IC50 [3] | Compound | IC50 [2]
1 | 19 nM | 18 nM | COCCN[C@H]1C2=C[C@@H](C2)[C@H](C)[C@@H](C)S(=O)(=O)NC(=O)c2ccc3c(c2)N(C[C@@H]2CC[C@H]21)C[C@@]1(CCCc2c1ccc(Cl)c2F)CO3 [compound 58, (1S,11′R,12′S,13′R,16′R,16a′R,18a′R)-6-chloro-5-fluoro-16′-((2-methoxyethyl)amino)-11′,12′-dimethyl-3,4,12′,13′,16′,16a′,17′,18′,18a′,19′-decahydro-1′H,2H,3′H, 11′H-spiro[naphthalene-1,2′-[5,7]etheno[13,15]methanocyclobuta[i][1,4]oxazepino[3,4-f][1]thia[2,7]diazacyclohexadecin]-8′(9′H)-one 10′,10′-dioxide] | 57 nM
2 | 13 nM | 4.1 nM | C[C@@H]1[C@@H](C)S(=O)(=O)NC(=O)c2ccc3c(c2)N(C[C@@H]2CC[C@H]2[C@@H](OCCN2CCOCC2)C2=C[C@H]1C2)C[C@@]1(CCCc2c1ccc(Cl)c2F)CO3 [compound 59, (1S,11′R,12′S,13′R,16′R,16a′R,18a′R,E)-6-chloro-5-fluoro-11′,12′-dimethyl-16′-(2-morpholinoethoxy)-3,4,12′,13′,16′,16a′,17′,18′,18a′,19′-decahydro-1′H,2H,3′H,11′H-spiro[naphthalene-1,2′-[5,7]etheno[13,15]methanocyclobuta[i][1,4]oxazepino[3,4-f][1]thia[2,7]diazacyclohexadecin]-8′(9′H)-one 10′,10′-dioxide] | 37 nM
3 | 15 nM | 19 nM | COCCO[C@H]1C2=C[C@@H](C2)[C@H](C)[C@@H](C)S(=O)(=O)NC(=O)c2ccc3c(c2)N(C[C@@H]2CC[C@H]21)C[C@@]1(CCCc2c1ccc(Cl)c2F)CO3 [compound 60, (1S,11′R,12′S,13′R,16′R,16a′R,18a′R,E)-6-chloro-5-fluoro-16′-(2-methoxyethoxy)-11′,12′-dimethyl-3,4,12′,13′,16′,16a′,17′,18′,18a′,19′-decahydro-1′H,2H,3′H,11′H-spiro[naphthalene-1,2′-[5,7]etheno[13,15]methanocyclobuta[i][1,4]oxazepino[3,4-f][1]thia[2,7]diazacyclohexadecin]-8′(9′H)-one 10′,10′-dioxide] | 66 nM
4 | 10 nM | 28 nM | C[C@@H]1[C@@H](C)S(=O)(=O)NC(=O)c2ccc3c(c2)N(C[C@@H]2CC[C@H]2[C@@H](OCCS(C)(=O)=O)C2=C[C@H]1C2)C[C@@]1(CCCc2c1ccc(Cl)c2F)CO3 [compound 61, (1S,11′R,12′S,13′R,16′R,16a′R,18a′R,E)-6-chloro-5-fluoro-11′,12′-dimethyl-16′-(2-(methylsulfonyl)ethoxy)-3,4,12′,13′,16′,16a′,17′,18′,18a′,19′-decahydro-1′H,2H,3′H,11′H-spiro[naphthalene-1,2′-[5,7]etheno[13,15]methanocyclobuta[i][1,4]oxazepino[3,4-f][1]thia[2,7]diazacyclohexadecin]-8′(9′H)-one 10′,10′-dioxide] | 75 nM
5 | 8.1 nM | 9.3 nM | C[C@@H]1[C@@H](C)S(=O)(=O)NC(=O)c2ccc3c(c2)N(C[C@@H]2CC[C@H]2[C@@H](OCc2ncccn2)C2=C[C@H]1C2)C[C@@]1(CCCc2c1ccc(Cl)c2F)CO3 [compound 62, (1S,11′R,12′S,13′R,16′R,16a′R,18a′R,E)-6-chloro-5-fluoro-11′,12′-dimethyl-16′-(pyrimidin-2-ylmethoxy)-3,4,12′,13′,16′,16a′,17′,18′,18a′,19′-decahydro-1′H,2H,3′H,11′H-spiro[naphthalene-1,2′-[5,7]etheno[13,15]methanocyclobuta[i][1,4]oxazepino[3,4-f][1]thia[2,7]diazacyclohexadecin]-8′(9′H)-one 10′,10′-dioxide] | 59 nM
6 | 13 nM | 98 nM | C[C@@H]1[C@@H](C)S(=O)(=O)NC(=O)c2ccc3c(c2)N(C[C@@H]2CC[C@H]2[C@@H](OCc2nccn2C)C2=C[C@H]1C2)C[C@@]1(CCCc2c1ccc(Cl)c2F)CO3 [compound 63, (1S,11′R,12′S,13′R,16′R,16a′R,18a′R,E)-6-chloro-5-fluoro-11′,12′-dimethyl-16′-((1-methyl-1H-imidazol-2-yl)methoxy)-3,4,12′,13′,16′,16a′,17′,18′,18a′,19′-decahydro-1′H,2H,3′H, 11′H-spiro[naphthalene-1,2′-[5,7]etheno[13,15]methanocyclobuta[i][1,4]oxazepino[3,4-f][1]thia[2,7]diazacyclohexadecin]-8′(9′H)-one 10′,10′-dioxide] | 88 nM
7 | 14 nM | 9.4 nM | C[C@@H]1[C@@H](C)S(=O)(=O)NC(=O)c2ccc3c(c2)N(C[C@@H]2CC[C@H]2[C@@H](OCC(=O)N(C)C)C2=C[C@H]1C2)C[C@@]1(CCCc2c1ccc(Cl)c2F)CO3 [compound 64, 2-(((1 S, 11′R,12′S,13′R,16′R,16a′R,18a′R,E)-6-chloro-5-fluoro-11′,12′-dimethyl-10′,10′-dioxido-8′-oxo-3,4,8′,9′,12′,13′,16′,16a′,17′,18′,18a′,19′-dodecahydro-1′H,2H,3′H, 11′H-spiro[naphthalene-1,2′-[5,7]etheno[13,15]methanocyclobuta[i][1,4]oxazepino[3,4-f][1]thia[2,7]diazacyclohexadecin]-16′-yl)oxy)-N,N-dimethylacetamide] | 120 nM
8 | 15 nM | 210 nM | C[C@@H]1[C@@H](C)S(=O)(=O)NC(=O)c2ccc3c(c2)N(C[C@@H]2CC[C@H]2[C@@H](OCCN2CCNCC2)C2=C[C@H]1C2)C[C@@]1(CCCc2c1ccc(Cl)c2F)CO3 [compound 65, (1S,11′R,12′S,13′R,16′R,16a′R,18a′R,E)-6-chloro-5-fluoro-11′,12′-dimethyl-16′-(2-(piperazin-1-yl)ethoxy)-3,4,12′,13′,16′,16a′,17′,18′,18a′,19′-decahydro-1′H,2H,3′H, 11′H-spiro[naphthalene-1,2′-[5,7]etheno[13,15]methanocyclobuta[i][1,4]oxazepino[3,4-f][1]thia[2,7]diazacyclohexadecin]-8′(9′H)-one 10′,10′-dioxide] | 247 nM
9 | 15 nM | 7.7 nM | C[C@@H]1[C@@H](C)S(=O)(=O)NC(=O)c2ccc3c(c2)N(C[C@@H]2CC[C@H]2[C@@H](OCCN2CCCC2)C2=C[C@H]1C2)C[C@@]1(CCCc2c1ccc(Cl)c2F)CO3 [compound 66, (1S,11′R,12′S,13′R,16′R,16a′R,18a′R,E)-6-chloro-5-fluoro-11′,12′-dimethyl-16′-(2-(pyrrolidin-1-yl)ethoxy)-3,4,12′,13′,16′,16a′,17′,18′,18a′,19′-decahydro-1′H,2H,3′H,11′H-spiro[naphthalene-1,2′-[5,7]etheno[13,15]methanocyclobuta[i][1,4]oxazepino[3,4-f][1]thia[2,7]diazacyclohexadecin]-8′(9′H)-one 10′,10′-dioxide] | 31 nM
10 | 15 nM | 97 nM | C[C@@H]1[C@@H](C)S(=O)(=O)NC(=O)c2ccc3c(c2)N(C[C@@H]2CC[C@H]2[C@@H](OCC(=O)N2CCOCC2)C2=C[C@H]1C2)C[C@@]1(CCCc2c1ccc(Cl)c2F)CO3 [compound 67, (1S,11′R,12′S,13′R,16′R,16a′R,18a′R,E)-6-chloro-5-fluoro-11′,12′-dimethyl-16′-(2-morpholino-2-oxoethoxy)-3,4,12′,13′,16′,16a′,17′,18′,18a′,19′-decahydro-1′H,2H,3′H, 11′H-spiro[naphthalene-1,2′-[5,7]etheno[13,15]methanocyclobuta[i][1,4]oxazepino[3,4-f][1]thia[2,7]diazacyclohexadecin]-8′(9′H)-one 10′,10′-dioxide] | 77 nM
11 | 15 nM | 43 nM | C[C@@H]1[C@@H](C)S(=O)(=O)NC(=O)c2ccc3c(c2)N(C[C@@H]2CC[C@H]2[C@@H](OCC(=O)N2CCCC2)C2=C[C@H]1C2)C[C@@]1(CCCc2c1ccc(Cl)c2F)CO3 [compound 68, (1S,11′R,12′S,13′R,16′R,16a′R,18a′R,E)-6-chloro-5-fluoro-11′,12′-dimethyl-16′-(2-oxo-2-(pyrrolidin-1-yl)ethoxy)-3,4,12′,13′,16′,16a′,17′,18′,18a′,19′-decahydro-1′H,2H,3′H, 11′H-spiro[naphthalene-1,2′-[5,7]etheno[13,15]methanocyclobuta[i][1,4]oxazepino[3,4-f][1]thia[2,7]diazacyclohexadecin]-8′(9′H)-one 10′,10′-dioxide] | 47 nM
12 | 14 nM | 69 nM | C[C@@H]1[C@@H](C)S(=O)(=O)NC(=O)c2ccc3c(c2)N(C[C@@H]2CC[C@H]2[C@@H](OCC(=O)N2CCCCC2)C2=C[C@H]1C2)C[C@@]1(CCCc2c1ccc(Cl)c2F)CO3 [compound 69, (1S,11′R,12′S,13′R,16′R,16a′R,18a′R,E)-6-chloro-5-fluoro-11′,12′-dimethyl-16′-(2-oxo-2-(piperidin-1-yl)ethoxy)-3,4,12′,13′,16′,16a′,17′,18′,18a′,19′-decahydro-1′H,2H,3′H,11′H-spiro[naphthalene-1,2′-[5,7]etheno[13,15]methanocyclobuta[i][1,4]oxazepino[3,4-f][1]thia[2,7]diazacyclohexadecin]-8′(9′H)-one 10′,10′-dioxide] | 40 nM
